Test system: influenza A virus (IAV) A/Aichi/2/68 (H3N2)
Assay: microbe, parasite or virus in culture
Type: cell-based, influenza A virus in MDCK cells
Conditions: for IC50: H3N2, MDCK, 48 h, read-out: CPE IC50
[1] = Influenza A virus, H3N2, read-out: % CPE reduction

Compound | IC50 (Influenza A virus) [µM] | other results
O=C(N[C@@H](C(=O)N1CCC(CO)C1)C1CCCCC1)c1c[nH]c2ncc(C3CC3)nc12 (some centres unmarked) | – | inhibition at 50 µM [1]: -10.1%
COC(=O)C1CCN(C(=O)[C@H](NC(=O)c2c[nH]c3ncc(C4CC4)nc23)C2CCCCC2)C1 (some centres unmarked) | – | inhibition at 5 µM [1]: -8.1%
O=C(N[C@@H](C(=O)N1CCC(C(=O)O)C1)C1CCCCC1)c1c[nH]c2ncc(C3CC3)nc12 (some centres unmarked) | – | inhibition at 5 µM [1]: 11.6%
CC(C)NC(=O)c1c[nH]c2ncc(-c3ccc(C4(C(=O)O)CC4)cc3)nc12 | – | inhibition at 25 µM [1]: -8.7%
COc1ccc(C(C)(C)CNC(=O)c2c[nH]c3ncc(C4CC4)nc23)cc1OC | – | inhibition at 2.5 µM [1]: 15.8%
CCOC(=O)C1(c2cccc(-c3cnc4[nH]cc(C(=O)NC(C)C)c4n3)c2)CC1 | – | inhibition at 5 µM [1]: -0.5%
CC(NC(=O)[C@H](NC(=O)c1c[nH]c2ncc(C3CC3)nc12)C1CC1)c1ccccc1 (some centres unmarked) | – | inhibition at 5 µM [1]: 2.7%
NC(=O)C(NC(=O)c1c[nH]c2ncc(C3CC3)nc12)c1ccc(OC(F)(F)F)cc1 (centres unmarked) | – | inhibition at 5 µM [1]: -12.9%
O=C(N[C@@H](C(=O)NCc1ccncc1)C1CCCCC1)c1c[nH]c2ncc(C3CC3)nc12 | – | inhibition at 50 µM [1]: -8.3%
O=C(N[C@@H](C(=O)NCC1CCOCC1)C1CCCCC1)c1c[nH]c2ncc(C3CC3)nc12 | – | inhibition at 5 µM [1]: 20.5%
COC(=O)[C@H]1CC[C@H](NC(=O)[C@H](NC(=O)c2c[nH]c3ncc(C4CC4)nc23)C2CCCCC2)CC1 | – | CPE (result in words): Active
O=C(N[C@@H](C(=O)NCc1ccccc1)C1CCCCC1)c1c[nH]c2ncc(C3CC3)nc12 | – | inhibition at 5 µM [1]: -2.2%
CC(C)C(NC(=O)c1c[nH]c2ncc(C3CC3)nc12)C(N)=O (centres unmarked) | – | inhibition at 5 µM [1]: -10.7%
O=C(N[C@H](C(=O)N1CCCC1)C1CC1)c1c[nH]c2ncc(C3CC3)nc12 | > 25 | –
CC(C)C[C@@H](NC(=O)c1c[nH]c2ncc(C3CC3)nc12)C(=O)N1CCCC1 | > 100 | –
CC(C)C[C@@H](NC(=O)c1c[nH]c2ncc(C3CC3)nc12)C(=O)N1CC2(CN(C(=O)OC(C)(C)C)C2)C1 | > 100 | –
O=C(N[C@@H](C(=O)N1CC2(COC2)C1)C1CC1)c1c[nH]c2ncc(C3CC3)nc12 | > 100 | –
O=C(N[C@@H](C(=O)N1CCN(C2CCOCC2)CC1)C1CC1)c1c[nH]c2ncc(C3CC3)nc12 | > 100 | –
O=C(N[C@@H](C(=O)N1CCC2(CCN(Cc3ccccc3)C2=O)C1)C1CC1)c1c[nH]c2ncc(C3CC3)nc12 (some centres unmarked) | 27 | –
O=C(N[C@@H](C(=O)NCC(=O)N1CCS(=O)(=O)CC1)C1CC1)c1c[nH]c2ncc(C3CC3)nc12 | > 100 | –
CC(C)C[C@@H](NC(=O)c1c[nH]c2ncc(C3CC3)nc12)C(=O)NCCC(=O)NC1CCCC1 | > 100 | –
O=C(N[C@@H](C(=O)NCC(=O)N1CCCC1)C1CC1)c1c[nH]c2ncc(C3CC3)nc12 | > 100 | –
CC(C)C[C@@H](NC(=O)c1c[nH]c2ncc(C3CC3)nc12)C(=O)NCCC(=O)Nc1ccccc1 | > 100 | –

Compound | IC50 (Influenza A virus) [µM] | other results
Cc1ccc(CNC(=O)c2c[nH]c3ncc(C(C)C)nc23)nn1 | 139 | –
O=C(N[C@@H](C(=O)N1CC2(CCC2)C1)C1CC1)c1c[nH]c2ncc(C3CC3)nc12 | > 100 | –
O=C(N[C@@H](C(=O)NCCc1ccccc1)C1CC1)c1c[nH]c2ncc(C3CC3)nc12 | > 100 | –
O=C(N[C@@H](C(=O)N1CCN(Cc2ccccc2)CC1)C1CC1)c1c[nH]c2ncc(C3CC3)nc12 | 41.9 | –
O=C(N[C@@H](C(=O)NCCC(=O)N1CCCC1)C1CC1)c1c[nH]c2ncc(C3CC3)nc12 | > 100 | –
CC(C)c1cnc2[nH]cc(C(=O)NCC(F)(F)F)c2n1 | > 50 | –
O=C(N[C@@H](C(=O)NCc1ccc(Cl)cc1)C1CC1)c1c[nH]c2ncc(C3CC3)nc12 | 2.99 | –
CC(C)c1cnc2[nH]cc(C(=O)NC3CCCCC3O)c2n1 (centres unmarked) | 11.3 | –
CC(C)C[C@@H](NC(=O)c1c[nH]c2ncc(C3CC3)nc12)C(=O)NCC(=O)NC1CCCC1 | > 100 | –
O=C(N[C@@H](C(=O)N1CCc2ccccc2C1)C1CC1)c1c[nH]c2ncc(C3CC3)nc12 | > 100 | –
O=C(N[C@@H](C(=O)NCC(=O)N1CCOCC1)C1CC1)c1c[nH]c2ncc(C3CC3)nc12 | > 100 | –
CC(C)c1cnc2[nH]cc(C(=O)NC3CCOC3(C)C)c2n1 (centres unmarked) | > 100 | –
COC(=O)C1CC2(CC(NC(=O)[C@@H](CC(C)C)NC(=O)c3c[nH]c4ncc(C5CC5)nc34)C2)C1 (some centres unmarked) | > 100 | –
O=C(N[C@@H](C(=O)N1CCCC1)C1CC1)c1c[nH]c2ncc(C3CC3)nc12 | > 25 | –
CC(C)(NC(=O)c1c[nH]c2ncc(C3CC3)nc12)C(=O)N1CCCC1 | > 100 | –
O=C(N[C@@H](C(=O)Nc1ccccc1)C1CC1)c1c[nH]c2ncc(C3CC3)nc12 | > 100 | –
O=C(N[C@@H](C(=O)N1CCC[C@@H](C(=O)N2CCCC2)C1)C1CC1)c1c[nH]c2ncc(C3CC3)nc12 | > 100 | –
COc1ccc(NC(=O)[C@H](NC(=O)c2c[nH]c3ncc(C4CC4)nc23)C2CC2)cc1 | > 100 | –
O=C(N[C@@H](C(=O)NCc1ccccc1)C1CC1)c1c[nH]c2ncc(C3CC3)nc12 | 18.2 | –
CC(C)c1cnc2[nH]cc(C(=O)NCCCN3CCOCC3)c2n1 | > 100 | –
CC(C)c1cnc2[nH]cc(C(=O)NC3(C#N)CC3)c2n1 | 34.7 | –
O=C(N[C@@H](C(=O)N1CCCCC1)C1CC1)c1c[nH]c2ncc(C3CC3)nc12 | > 100 | –
O=C(N[C@@H](C(=O)N1CCC[C@@H](C(=O)N2CCCCC2)C1)C1CC1)c1c[nH]c2ncc(C3CC3)nc12 | > 100 | –

Compound | IC50 (Influenza A virus) [µM] | other results
CC(C)C[C@@H](NC(=O)c1c[nH]c2ncc(C3CC3)nc12)C(=O)NCC(=O)Nc1ccccc1 | – | inhibition at 50 µM [1]: 25%
COc1ccc(CNC(=O)[C@H](NC(=O)c2c[nH]c3ncc(C4CC4)nc23)C2CC2)cc1 | 10.3 | –
O=C(N[C@@H](C(=O)NCCC(=O)N1CCOCC1)C1CC1)c1c[nH]c2ncc(C3CC3)nc12 | > 100 | –
CC(C)C[C@@H](NC(=O)c1c[nH]c2ncc(C3CC3)nc12)C(=O)N1CC2(CNC2)C1 | > 100 | –
CC(C)C[C@@H](NC(=O)c1c[nH]c2ncc(C3CC3)nc12)C(=O)NCC(=O)NCc1ccccn1 | > 100 | –
O=C(N[C@@H](C(=O)N1CCC[C@H](C(=O)N2CCOCC2)C1)C1CC1)c1c[nH]c2ncc(C3CC3)nc12 | > 100 | –
O=C(N[C@@H](C(=O)NCc1ccncc1)C1CC1)c1c[nH]c2ncc(C3CC3)nc12 | 40.4 | –
O=C(N[C@@H](C(=O)NC1CCCc2ccccc21)C1CC1)c1c[nH]c2ncc(C3CC3)nc12 (some centres unmarked) | > 100 | –
O=C(N[C@@H](C(=O)NCc1cccc(F)c1)C1CC1)c1c[nH]c2ncc(C3CC3)nc12 | 9.2 | –
O=C(N[C@@H](C(=O)N1CC(F)(F)C1)C1CC1)c1c[nH]c2ncc(C3CC3)nc12 | > 100 | –
O=C(N[C@@H](C(=O)N1CCOCC1)C1CC1)c1c[nH]c2ncc(C3CC3)nc12 | > 100 | –
O=C(N[C@@H](C(=O)N1CCC[C@@H](C(=O)N2CCOCC2)C1)C1CC1)c1c[nH]c2ncc(C3CC3)nc12 | > 100 | –
CC(C)C[C@@H](NC(=O)c1c[nH]c2ncc(C3CC3)nc12)C(=O)NCC(=O)NCc1ccccc1 | > 100 | –
O=C(N[C@@H](C(=O)N1CCC[C@H](C(=O)N2CCCC2)C1)C1CC1)c1c[nH]c2ncc(C3CC3)nc12 | > 100 | –
CN1CCN(C(=O)CCNC(=O)[C@H](NC(=O)c2c[nH]c3ncc(C4CC4)nc23)C2CC2)CC1 | > 100 | –
O=C(N[C@@H](C(=O)NCCC(=O)N1CCCCC1)C1CC1)c1c[nH]c2ncc(C3CC3)nc12 | > 100 | –
CCCNC(=O)c1c[nH]c2ncc(C(C)C)nc12 | 18.1 | –
O=C(N[C@@H](C(=O)NCCc1ccc(Cl)cc1)C1CC1)c1c[nH]c2ncc(C3CC3)nc12 | > 100 | –
O=C(N[C@@H](C(=O)NCc1ccccc1F)C1CC1)c1c[nH]c2ncc(C3CC3)nc12 | 14.6 | –
CC(C)C[C@@H](NC(=O)c1c[nH]c2ncc(C3CC3)nc12)C(=O)NCCC(=O)NCc1ccccn1 | > 100 | –
N#CC(NC(=O)[C@H](NC(=O)c1c[nH]c2ncc(C3CC3)nc12)C1CC1)c1ccc(C(F)(F)F)cc1 (some centres unmarked) | > 10 | –
O=C(N[C@@H](C(=O)NCCC(=O)N1CCS(=O)(=O)CC1)C1CC1)c1c[nH]c2ncc(C3CC3)nc12 | > 100 | –
CC(C)C[C@@H](NC(=O)c1c[nH]c2ncc(C3CC3)nc12)C(=O)NCCC(=O)NCc1ccccc1 | > 100 | –

Compound | IC50 (Influenza A virus) [µM] | other results
O=C(N[C@@H](C(=O)N1CCC[C@H](C(=O)N2CCCCC2)C1)C1CC1)c1c[nH]c2ncc(C3CC3)nc12 | 33.1 | –
O=C(NCC(=O)N1CCCC1)c1c[nH]c2ncc(Br)nc12 | > 100 | –
CC1(CNC(=O)c2c[nH]c3ncc(-c4ccccc4Cl)nc23)CCC(=O)N1 (centres unmarked) | > 100 | –
COc1ccc(CCNC(=O)[C@H](NC(=O)c2c[nH]c3ncc(C4CC4)nc23)C2CC2)cc1 | > 100 | –
CC(C)c1cnc2[nH]cc(C(=O)NC(C)C(C)(C)O)c2n1 (centres unmarked) | 12.2 | –
COCCN(CCOC)C(=O)c1c[nH]c2ncc(C(C)C)nc12 | > 100 | –
CCN(C)C(=O)c1c[nH]c2ncc(C(C)C)nc12 | > 100 | –
CC(C)c1cnc2[nH]cc(C(=O)N3CCC(F)(F)CC3)c2n1 | > 100 | –
O=C(N[C@@H](C(=O)NCc1ccccc1Cl)C1CC1)c1c[nH]c2ncc(C3CC3)nc12 | 8.8 | –
O=C(N[C@@H](C(=O)NCc1ccc(C(F)(F)F)cc1)C1CC1)c1c[nH]c2ncc(C3CC3)nc12 | 4.6 | –
COc1ccc(C(C#N)NC(=O)[C@H](NC(=O)c2c[nH]c3ncc(C4CC4)nc23)C2CC2)cc1 (some centres unmarked) | 4.9 | –
O=C(N[C@@H](C(=O)NCc1ccc(Cl)c(Cl)c1)C1CC1)c1c[nH]c2ncc(C3CC3)nc12 | 4.7 | –
O=C(N[C@@H](C(=O)NCc1ccc(OC(F)(F)F)cc1)C1CC1)c1c[nH]c2ncc(C3CC3)nc12 | 5.4 | –
O=C(N[C@@H](C(=O)NCc1ccc(F)cc1)C1CC1)c1c[nH]c2ncc(C3CC3)nc12 | 16.1 | –
O=C(N[C@@H](C(=O)NCc1ccc(F)c(F)c1)C1CC1)c1c[nH]c2ncc(C3CC3)nc12 | 14.8 | –
O=C(N[C@@H](C(=O)NCc1cccc(Cl)c1)C1CC1)c1c[nH]c2ncc(C3CC3)nc12 | 7.3 | –
CS(=O)(=O)CCNC(=O)c1c[nH]c2ncc(-c3ccccc3Cl)nc12 | > 100 | –
O=C(N[C@@H](C(=O)NCc1cc(Cl)cc(Cl)c1)C1CC1)c1c[nH]c2ncc(C3CC3)nc12 | > 25 | –
CC(C)NC(=O)c1c[nH]c2ncc(-c3ccccc3C(F)(F)F)nc12 | > 100 | –
CC(C)C[C@@H](NC(=O)c1c[nH]c2ncc(C3CC3)nc12)C(=O)NC1CCCc2ccccc21 (some centres unmarked) | > 100 | –
